Test results taken from patent publication US12144788B2, “Visual cycle modulators” (CASE WESTERN RESERVE UNIVERSITY, priority 2017, dated 2024).
Entries after “also recorded” stand apart in the source; their conditions may differ.

Tests used:
[1] = quantification of MB-005 in mouse eyes by LC-ESI-MS/MS; format: in vivo; conditions: 1 mg dose oral gavage
Procedure: MB-005 (1 mg/mouse) was administrated by oral gavage to C57BL/6J mice, which were then kept in the dark for 4-24 h. Then, mice were euthanized, and their eyes were homogenized in 1 ml of 10 mM sodium phosphate buffer, pH 7.4, containing 50% methanol (v/v). The resulting mixture was extracted with 4 ml EtOAc. […] This solution (100 μl) was analyzed by liquid chromatography—electrospray ionization—MS/MS (LC-ESI-MS/MS) (4.6 mm×150 mm; Agilent ZORBAX Eclipse XDB-C18) with a gradient of acetonitrile in water (0%-100% in 30 min) as the eluent at a flow rate of 0.5 ml/min.
To confirm the ocular distribution of this compound series, we directly measured the quantity of MB-005 in the eye by mass spectrometry after a 1 mg dose. […] This minimal change in ocular MB-005 concentration contrasts with the ˜3-fold greater inhibition of visual cycle function observed at 4 h versus 24 h for this compound.

C57BL/6J mice = assay: in vivo dark-adapted ERG recordings after bleach; set-up: species or system mouse; conditions: gavage 1 day before bleach, doses indicated effective by retinoid analysis
Procedure: FIG. 5 illustrates ERG responses of mice treated with visual cycle modulators. Oral gavage was used to administer vehicle or MB compounds to mice 24 h prior to 10 min light exposure followed by 6 h of dark adaptation. Dark-adapted ERGs were obtained to strobe flash stimuli.
C57BL/6J mice aged 1.5-4 months were anesthetized with ketamine (80 mg/kg) and xylazine (16 mg/kg) after overnight dark adaptation. Mydriatic eye drops were used to dilate the pupil (1% tropicamide; 2.5% phenylephrine). ERGs were obtained using an active electrode that contacted the corneal surface; needle electrodes placed in the cheek and tail provided reference and ground leads, respectively. Strobe stimuli were presented to the dark-adapted eye in an LKC (Gaithersburg, MD) ganzfeld. Responses were amplified, averaged and stored using an LKC UTAS E-3000 signal averaging system.
Baseline dark-adapted ERGs were recorded from each mouse. After a minimum 1 day interval, MB compounds or vehicle were administered by gavage at 9 a.m. The next morning, mydriatic eye drops were used to dilate the pupils and mice were then exposed to a 10-minute 10,000 lux bleach. Mice were dark-adapted for 6 hours, after which ERGs were recorded.
We next examined the impact of these compounds on retinal function, measured using the electroretinogram (ERG). FIG. 5 presents a family of dark-adapted ERGs measured 6 hours after mice underwent a 95% bleach presented 1 day following gavage administration of vehicle or MB compound molecules at doses indicated to be effective by retinoid analysis. […] In comparison, mice administered with MB compound molecules had had reduced amplitude ERGs indicative of incomplete bleaching recovery. […] In response to higher luminance stimuli, reproducible responses were observed. That these reflect dark-adapted cone-mediated responses is supported by their similarity to responses obtained from transducin KO mice which lack rod-mediated activity, while retaining normal cone-mediated responses, and have a very similar ERG phenotype.

RPE65 = RPE65 (Bos taurus, UniProt Q28175); assay: in vitro retinoid isomerase activity assay with bovine RPE microsomes; conditions: up to concentrations of 50 μM
Procedure: Primary amines were pre-incubated with bovine RPE microsomes at room temperature for 5 min, then all-trans-retinol was added and the mixtures were incubated at 37° C. All incubation mixtures were quenched by the addition of methanol after 1 h of incubation. Inhibition of RPE65 enzymatic activity was measured as a decline in 11-cis-retinol production.
Synthesized primary amine (1 μl in DMF, with the final concentration ranging between 50 nM and 50 μM) was added to 10 mM Bis-Tris propane/HCl buffer, pH 7.4, containing 150 μg RPE microsomes, 1% BSA, 1 mM disodium pyrophosphate, and 20 μM aporetinaldehyde-binding protein 1 (CRALBP). The resulting mixture was pre-incubated at room temperature for 5 min. Then, all-trans-retinol (1 μl in DMF, at a final concentration of 20 μM) was added. The resulting mixture was incubated at 37° C. for 1 h. The reaction was quenched by adding 300 μl methanol, and products were extracted with 300 μl hexanes. Production of 11-cis-retinol was quantified by normal-phase HPLC with 10% (v/v) EtOAc in hexanes as the eluent at a flow rate of 1.4 ml/min. Retinoids were detected by monitoring their absorbance at 325 nm and quantified based on a standard curve representing the relationship between the amount of synthetic 11-cis-retinol standard and the area under the corresponding chromatographic peak.
To test these structural predictions, we examined the inhibitory activity of the compounds against RPE65 activity in an in vitro retinoid isomerase assay using bovine RPE microsomes as the enzyme source.

[2] = tested on: visual chromophore regeneration in C57BL6J mouse eyes; assay: visual chromophore recovery assay (ocular 11-cis-retinal by HPLC after bleach); format: in vivo
Procedure: FIG. 4 illustrates inhibition of visual chromophore regeneration in C57BL6J mouse eyes by MB compounds. The MB drugs were administrated to mice by oral gavage 24 h prior to light exposure for 10 min. Then all mice recovered under darkness for 6 h.
Abca4^−/−Rdh8^−/− mice on a C57BL/6J background were generated as previously described. Male and female WT mice with C57BL/6J backgrounds were obtained from The Jackson Laboratory. Abca4^−/−Rdh8^−/− mice used in this study were homozygous for the Leu450 allele of Rpe65 as determined by a genotyping protocol published previously and free of Crb1/rd8 and rd/rd mutations Animals were housed either in the animal facility at the Case Western Reserve University School of Medicine, where they received a standard chow diet (LabDiet 5053) and were maintained under a 12-h light (˜300 lux) and 12-h dark cycle or at the Cole Eye Institute animal facility where they were. Mice were dark adapted overnight prior to all experiments. A cohort of Rdh8^−/−Abca4^−/− or C57BL/6J mice was used when they reached the age of 1 to 2 months, and both sexes were used evenly. All tested primary amines were suspended in 100 μl soybean oil with less than 10% (v/v) DMSO and were administered by oral gavage with a 22-gauge feeding needle. Experimental manipulations in the dark were done under dim red light transmitted through a Kodak No. 1 Safelight Filter (transmittance >560 nm).
After bright light exposure resulting in photoactivation of 95% of rhodopsin, mice were kept in the dark for 6 h. Then, the animals were euthanized and their eyes were collected and homogenized in 10 mM sodium phosphate buffer, pH 7.4, containing 50% methanol (v/v) and 40 mM hydroxylamine. The resulting mixture was extracted with 4 ml of hexanes.
Next, we tested the effects of the MB compound series on retinoid cycle function in the living mouse. […] After the light treatment, mice were allowed to dark adapt for 6 h before their ocular retinoid content was determined by HPLC. […] To examine the possibility that the lack of MB-008 efficacy at 24 h was due to insufficient concentrations resulting from a shorter elimination half-life or poorer bioavailability, we repeated the experiment with the mice subjected to light exposure 4 h after MB-008 administration. A 100 μg dose of MB-008 suppressed visual chromophore regeneration by ˜80%, supporting the idea that the retinal concentration of MB-008 could be sub-effective at the longer post-treatment light challenge.

RPE65, sequence (Q28175 whole entry): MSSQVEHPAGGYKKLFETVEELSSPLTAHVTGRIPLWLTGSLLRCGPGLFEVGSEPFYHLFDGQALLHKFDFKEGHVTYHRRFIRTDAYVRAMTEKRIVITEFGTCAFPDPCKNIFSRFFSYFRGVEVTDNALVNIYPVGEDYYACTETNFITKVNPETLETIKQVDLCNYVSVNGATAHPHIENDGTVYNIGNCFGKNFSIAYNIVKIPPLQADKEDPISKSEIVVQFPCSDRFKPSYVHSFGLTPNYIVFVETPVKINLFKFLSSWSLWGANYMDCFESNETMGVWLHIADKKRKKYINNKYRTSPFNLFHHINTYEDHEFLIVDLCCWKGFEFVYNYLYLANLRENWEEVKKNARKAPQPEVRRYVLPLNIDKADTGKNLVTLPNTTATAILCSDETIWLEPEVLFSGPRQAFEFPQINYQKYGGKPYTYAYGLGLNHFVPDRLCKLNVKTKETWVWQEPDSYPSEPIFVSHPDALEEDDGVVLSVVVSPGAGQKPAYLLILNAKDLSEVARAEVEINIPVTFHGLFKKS

With `CC(C)c1cc(OCC2CCCCC2)cc(C(O)CCN)c1` (stereo not drawn) [MB-005, 3-Amino-1-(3-(cyclohexylmethoxy)-5-isopropylphenyl)propan-1-ol] the “ocular level of MB-005” value ([1]; 6 h after treatment) was ~140 ng/eye, the “ocular level of MB-005” value ([1]; 24 h post-treatment time point versus 6 h) was “declined only slightly” and the “dark-adapted ERG 6 hours after 95% bleach” value (C57BL/6J mice) was “less incomplete recovery”. For the same molecule, the “inhibition against retinoid isomerization” value (RPE65) was “minimal or no inhibition”, the “effect on 11-cis-retinal recovery / visual cycle function” value ([2]; 500 μg (0.5 mg/mouse) oral gavage 24 h before light exposure, 6 h dark) was “minimal effects; also recorded: no measurable effect” and the visual cycle function ([2]; 2 mg/mouse oral gavage) was “severely impaired”. For the same molecule, the “fold greater inhibition of visual cycle function at 4 h versus 24 h” value ([2]; 4 h versus 24 h between dose and light) was ~3 fold, the “effect of shortening the time between drug administration and the light challenge” value ([2]; shorter interval versus 24 h) was “enhanced the inhibitory effects” and the “inhibition of 11-cis-retinal recovery (suppression of visual chromophore regeneration)” value ([2]; two-fold higher dose than 500 μg (1 mg per mouse), oral gavage 24 h before light exposure) was ~50% and approximately 60%.
